Each structure is given as a SMILES string. In brackets after ≈: the same amount, converted by molar mass. Several values for one entry are separate records, joined by “and”; a condition that tells them apart may be missing. Equal entries are not always repeated. Activity calls are given as the source filed them. No cut-off for these calls is given here. Bounds are passed on as bounds.

We go through 19 compounds from ChEMBL document CHEMBL1140509, “Rynaxypyr: a new insecticidal anthranilic diamide that acts as a potent and selective ryanodine receptor activator” (Bioorg Med Chem Lett, 2007).

One series relates to Heliothis virescens. Briefly: Insecticidal activity against Heliothis virescens. The format is functional.
The next series relates to Plutella xylostella. Nature of the series: Insecticidal activity against Plutella xylostella. In kind it is functional.
In a further series the test system is Spodoptera frugiperda. Nature of the series: Insecticidal activity against Spodoptera frugiperda. In kind it is functional.
The nature of series [1]: Activation of Heliothis virescens recombinant ryanodine receptor expressed in Sf9 cells assessed as induction of calcium mobilization.
For series [2], the target named is T1, Ryanodine receptor 2 (Homo sapiens, UniProt Q92736). Nature of the series: Activation of ryanodine receptor in human IMR32 cells assessed as induction of calcium mobilization at 100 uM. As to conditions: IMR-32. The format is cell-based.
T1 sequence (Q92736 whole entry): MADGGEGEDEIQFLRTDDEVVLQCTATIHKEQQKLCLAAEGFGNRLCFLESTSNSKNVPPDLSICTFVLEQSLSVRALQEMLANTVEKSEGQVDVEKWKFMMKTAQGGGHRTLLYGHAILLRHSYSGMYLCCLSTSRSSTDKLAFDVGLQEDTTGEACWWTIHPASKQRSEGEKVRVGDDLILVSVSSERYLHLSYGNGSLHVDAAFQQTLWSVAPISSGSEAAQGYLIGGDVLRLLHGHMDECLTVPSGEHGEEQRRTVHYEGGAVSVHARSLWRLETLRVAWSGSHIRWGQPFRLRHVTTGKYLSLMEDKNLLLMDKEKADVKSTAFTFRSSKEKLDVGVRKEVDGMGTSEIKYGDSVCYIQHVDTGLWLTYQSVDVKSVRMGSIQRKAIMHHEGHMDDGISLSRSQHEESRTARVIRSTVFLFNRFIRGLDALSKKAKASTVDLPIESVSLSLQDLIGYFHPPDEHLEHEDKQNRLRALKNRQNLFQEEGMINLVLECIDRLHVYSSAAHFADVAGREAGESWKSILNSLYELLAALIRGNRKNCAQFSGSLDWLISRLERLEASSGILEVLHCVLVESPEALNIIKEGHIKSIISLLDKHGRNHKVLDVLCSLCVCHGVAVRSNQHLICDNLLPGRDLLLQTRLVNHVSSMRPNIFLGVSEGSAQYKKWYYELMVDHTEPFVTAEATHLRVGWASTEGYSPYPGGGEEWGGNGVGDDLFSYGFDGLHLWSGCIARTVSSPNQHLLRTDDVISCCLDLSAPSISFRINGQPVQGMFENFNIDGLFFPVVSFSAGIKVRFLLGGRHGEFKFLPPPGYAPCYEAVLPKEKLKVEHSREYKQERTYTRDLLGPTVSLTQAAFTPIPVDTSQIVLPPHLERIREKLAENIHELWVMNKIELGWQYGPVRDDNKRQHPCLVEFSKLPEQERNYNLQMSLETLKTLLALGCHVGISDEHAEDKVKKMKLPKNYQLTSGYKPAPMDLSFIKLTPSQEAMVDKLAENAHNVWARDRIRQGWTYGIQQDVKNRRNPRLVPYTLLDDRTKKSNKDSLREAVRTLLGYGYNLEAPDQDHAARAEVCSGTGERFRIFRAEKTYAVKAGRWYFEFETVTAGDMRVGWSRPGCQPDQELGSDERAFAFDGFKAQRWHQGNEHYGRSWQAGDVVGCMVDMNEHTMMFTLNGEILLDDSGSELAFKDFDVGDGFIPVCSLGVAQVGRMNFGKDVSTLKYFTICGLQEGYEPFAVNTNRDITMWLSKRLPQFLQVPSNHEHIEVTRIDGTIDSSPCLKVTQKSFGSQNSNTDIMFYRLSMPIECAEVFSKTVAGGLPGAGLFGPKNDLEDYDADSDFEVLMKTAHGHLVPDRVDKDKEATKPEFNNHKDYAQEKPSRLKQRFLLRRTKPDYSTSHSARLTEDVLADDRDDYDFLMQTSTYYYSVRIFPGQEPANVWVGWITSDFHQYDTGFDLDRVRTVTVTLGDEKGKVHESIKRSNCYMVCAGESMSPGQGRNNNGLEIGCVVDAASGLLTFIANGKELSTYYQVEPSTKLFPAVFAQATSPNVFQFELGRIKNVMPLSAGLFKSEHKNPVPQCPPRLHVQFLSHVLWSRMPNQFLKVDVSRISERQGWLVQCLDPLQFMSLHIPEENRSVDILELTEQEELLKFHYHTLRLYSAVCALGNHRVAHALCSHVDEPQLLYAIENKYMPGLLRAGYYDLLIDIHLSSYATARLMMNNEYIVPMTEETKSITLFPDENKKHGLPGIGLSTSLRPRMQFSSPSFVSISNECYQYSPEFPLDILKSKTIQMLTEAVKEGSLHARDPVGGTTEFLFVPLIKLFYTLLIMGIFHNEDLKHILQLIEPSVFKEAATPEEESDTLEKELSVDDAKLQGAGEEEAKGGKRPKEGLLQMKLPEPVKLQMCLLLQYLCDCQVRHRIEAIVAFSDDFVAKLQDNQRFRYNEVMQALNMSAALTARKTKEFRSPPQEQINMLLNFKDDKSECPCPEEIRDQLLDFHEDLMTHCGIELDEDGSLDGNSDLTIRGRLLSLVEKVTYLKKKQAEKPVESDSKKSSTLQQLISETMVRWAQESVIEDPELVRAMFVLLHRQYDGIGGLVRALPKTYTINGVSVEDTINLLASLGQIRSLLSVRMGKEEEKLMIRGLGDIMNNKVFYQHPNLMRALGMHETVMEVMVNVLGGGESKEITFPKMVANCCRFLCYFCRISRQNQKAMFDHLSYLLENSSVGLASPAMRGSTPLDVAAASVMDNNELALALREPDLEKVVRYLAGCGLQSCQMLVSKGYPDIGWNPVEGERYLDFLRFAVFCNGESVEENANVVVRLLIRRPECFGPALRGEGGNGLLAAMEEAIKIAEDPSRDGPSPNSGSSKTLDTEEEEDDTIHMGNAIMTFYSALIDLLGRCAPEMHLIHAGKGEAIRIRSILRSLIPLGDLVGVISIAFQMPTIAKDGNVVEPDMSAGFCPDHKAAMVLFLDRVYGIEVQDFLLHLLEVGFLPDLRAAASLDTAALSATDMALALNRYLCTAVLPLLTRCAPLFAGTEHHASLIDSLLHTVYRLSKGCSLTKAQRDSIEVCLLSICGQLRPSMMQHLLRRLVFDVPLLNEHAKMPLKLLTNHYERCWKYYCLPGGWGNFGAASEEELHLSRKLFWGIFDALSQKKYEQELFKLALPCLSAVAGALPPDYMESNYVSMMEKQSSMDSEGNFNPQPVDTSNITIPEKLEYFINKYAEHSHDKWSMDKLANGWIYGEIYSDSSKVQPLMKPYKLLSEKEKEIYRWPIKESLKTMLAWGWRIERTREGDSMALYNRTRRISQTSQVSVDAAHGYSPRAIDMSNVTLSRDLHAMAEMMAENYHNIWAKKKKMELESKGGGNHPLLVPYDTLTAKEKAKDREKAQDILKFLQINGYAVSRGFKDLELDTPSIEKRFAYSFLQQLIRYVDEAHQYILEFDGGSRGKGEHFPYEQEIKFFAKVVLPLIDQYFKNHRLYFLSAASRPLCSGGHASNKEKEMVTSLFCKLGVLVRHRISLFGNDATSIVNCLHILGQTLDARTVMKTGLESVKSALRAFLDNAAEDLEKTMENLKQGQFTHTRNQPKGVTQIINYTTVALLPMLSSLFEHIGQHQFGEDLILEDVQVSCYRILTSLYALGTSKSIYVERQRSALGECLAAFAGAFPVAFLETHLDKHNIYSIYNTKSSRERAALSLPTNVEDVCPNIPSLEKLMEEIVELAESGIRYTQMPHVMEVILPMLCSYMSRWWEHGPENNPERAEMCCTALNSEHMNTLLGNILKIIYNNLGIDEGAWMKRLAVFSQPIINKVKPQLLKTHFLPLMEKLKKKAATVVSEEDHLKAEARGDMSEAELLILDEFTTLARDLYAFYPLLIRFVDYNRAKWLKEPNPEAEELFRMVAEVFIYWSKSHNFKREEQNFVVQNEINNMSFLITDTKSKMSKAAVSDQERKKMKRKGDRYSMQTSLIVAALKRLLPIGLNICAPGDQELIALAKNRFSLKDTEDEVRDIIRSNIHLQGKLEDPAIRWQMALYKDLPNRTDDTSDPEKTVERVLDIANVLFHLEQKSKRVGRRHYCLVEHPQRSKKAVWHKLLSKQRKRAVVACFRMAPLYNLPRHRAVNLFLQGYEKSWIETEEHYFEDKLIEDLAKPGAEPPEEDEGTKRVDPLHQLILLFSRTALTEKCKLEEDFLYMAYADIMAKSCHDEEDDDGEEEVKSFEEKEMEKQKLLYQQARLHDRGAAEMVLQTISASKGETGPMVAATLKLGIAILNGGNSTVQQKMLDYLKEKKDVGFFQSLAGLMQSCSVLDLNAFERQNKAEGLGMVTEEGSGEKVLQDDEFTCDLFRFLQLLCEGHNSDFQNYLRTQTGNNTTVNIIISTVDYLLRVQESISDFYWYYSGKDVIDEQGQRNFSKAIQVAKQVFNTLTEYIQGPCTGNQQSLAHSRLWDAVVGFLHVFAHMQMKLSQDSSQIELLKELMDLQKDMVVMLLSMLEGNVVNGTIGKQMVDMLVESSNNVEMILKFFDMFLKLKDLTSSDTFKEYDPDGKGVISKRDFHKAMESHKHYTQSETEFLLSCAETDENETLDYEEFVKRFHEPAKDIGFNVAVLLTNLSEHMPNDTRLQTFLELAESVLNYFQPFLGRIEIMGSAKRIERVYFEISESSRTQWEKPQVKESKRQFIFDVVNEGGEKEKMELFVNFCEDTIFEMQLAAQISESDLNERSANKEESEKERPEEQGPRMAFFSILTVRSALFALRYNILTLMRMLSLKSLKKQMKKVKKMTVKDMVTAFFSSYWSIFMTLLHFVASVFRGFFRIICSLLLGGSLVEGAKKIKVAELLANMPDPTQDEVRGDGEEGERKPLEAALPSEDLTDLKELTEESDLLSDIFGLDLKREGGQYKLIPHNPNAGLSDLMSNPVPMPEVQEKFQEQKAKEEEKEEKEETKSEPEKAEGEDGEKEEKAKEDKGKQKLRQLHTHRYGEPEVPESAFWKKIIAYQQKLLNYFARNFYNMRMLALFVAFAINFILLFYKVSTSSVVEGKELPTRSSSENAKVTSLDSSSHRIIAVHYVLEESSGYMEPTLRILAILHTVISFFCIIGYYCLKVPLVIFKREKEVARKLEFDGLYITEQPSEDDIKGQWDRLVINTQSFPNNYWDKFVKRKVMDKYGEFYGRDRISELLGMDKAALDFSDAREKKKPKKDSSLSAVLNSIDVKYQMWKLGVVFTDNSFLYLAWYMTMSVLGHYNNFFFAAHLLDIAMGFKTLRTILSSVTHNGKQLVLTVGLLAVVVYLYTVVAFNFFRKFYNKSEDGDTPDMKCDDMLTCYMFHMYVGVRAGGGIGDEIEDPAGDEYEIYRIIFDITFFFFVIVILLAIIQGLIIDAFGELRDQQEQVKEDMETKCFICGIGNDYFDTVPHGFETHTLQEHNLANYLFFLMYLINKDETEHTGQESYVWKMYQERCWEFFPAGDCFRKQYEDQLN
Series [3] is described as follows: Toxicity in po dosed rat. The format is organism-based. As to conditions: in vivo.
Series [4] can be described thus: Activation of ryanodine receptor in mouse C2C12 cells assessed as induction of calcium mobilization. The format is cell-based. (In general: A change in cytosolic calcium serves as a functional read-out for many receptors and channels.)
Another series addresses Ryanodine receptor (Drosophila melanogaster, UniProt Q24498). Nature of the series: Activation of Drosophila melanogaster ryanodine receptor in Sf9 cells assessed as induction of calcium mobilization. The format is cell-based.
Series [5] is described as follows: Activation of ryanodine receptor in rat PC12 cells assessed as induction of calcium mobilization. As to conditions: PC-12. The format is cell-based.
For the next series, the system named is PC-12. Nature of the series: Activation of ryanodine receptor in rat PC12 cells assessed as induction of calcium mobilization at 100 uM. The format is cell-based.
In the next series the test system is Rattus norvegicus. Briefly: Toxicity in rat above 1000 mg/kg/day. As to conditions: in vivo. In kind it is organism-based.
The next series deals with Oryctolagus cuniculus. Briefly: Toxicity in rabbit above 1000 mg/kg/day. The format is organism-based. As to conditions: in vivo.
The target of series [6] is T1, Ryanodine receptor 2. Briefly: Activation of ryanodine receptor in human IMR32 cells assessed as induction of calcium mobilization. The format is cell-based, IMR-32.

The term LC50 denotes the concentration that kills 50% of the test population. Broadly, the EC50 is the concentration giving half of the maximal effect. In the case of `CNC(=O)c1cc(Cl)cc(C)c1NC(=O)c1cc(C(F)(F)F)nn1-c1ncccc1Cl`, the results for the LC50 in the series on Heliothis virescens, in the series on Plutella xylostella and in the series on Spodoptera frugiperda were 0.05 µg/mL (≈ 0.106 µM), 0.01 µg/mL (≈ 0.0212 µM) and 0.02 µg/mL (≈ 0.0424 µM), respectively. Besides, the EC50 in [1] amounted to 73 nM.

`CNC(=O)c1cc(Cl)cc(C)c1NC(=O)c1cc(OC(F)F)nn1-c1ncccc1Cl`: the LC50 with Heliothis virescens is 1.08 µg/mL (≈ 2.3 µM); in the series on Plutella xylostella, 0.38 µg/mL (≈ 0.808 µM); with Spodoptera frugiperda it was 0.21 µg/mL (≈ 0.447 µM). Moreover, in series [1], the EC50 worked out at 60 nM.

As to `Cc1cc(Br)cc(C(=O)NC(C)C)c1NC(=O)c1cc(C(F)(F)F)nn1-c1ncccc1Cl`, the LC50 in the series on Heliothis virescens was found to be 0.03 µg/mL (≈ 0.0551 µM); in the series with Plutella xylostella, 0.01 µg/mL (≈ 0.0184 µM); in the series with Spodoptera frugiperda, 0.03 µg/mL (≈ 0.0551 µM). Besides, in series [1], the EC50 was 1570 nM.

For the compound `Cc1cc(Cl)cc(C(=O)NC(C)C)c1NC(=O)c1cc(Cl)nn1-c1ncccc1Cl`, the LC50 in the series with Heliothis virescens was found to be 0.05 µg/mL (≈ 0.107 µM); in the series with Plutella xylostella, 0.09 µg/mL (≈ 0.193 µM); with Spodoptera frugiperda, 0.05 µg/mL (≈ 0.107 µM). Moreover, the EC50 in series [1] was determined as 270 nM.

Regarding `CNC(=O)c1cc(Cl)cc(C)c1NC(=O)c1cc(OC)nn1-c1ncccc1Cl`, the LC50 in the series with Heliothis virescens turned out to be 2.43 µg/mL (≈ 5.6 µM); in the series with Plutella xylostella it was 0.33 µg/mL (≈ 0.76 µM); in the series on Spodoptera frugiperda it was 0.68 µg/mL (≈ 1.57 µM). The EC50 in series [1] came out at 101 nM.

Regarding `CNC(=O)c1cc(C(F)(F)F)cc(C)c1NC(=O)c1cc(C(F)(F)F)nn1-c1ncccc1Cl`, the LC50 with Heliothis virescens was determined as 0.66 µg/mL (≈ 1.3 µM); in the series with Plutella xylostella, 0.09 µg/mL (≈ 0.178 µM); with Spodoptera frugiperda, 0.53 µg/mL (≈ 1.05 µM).

The term LD50 denotes the dose at which mortality reaches 50%. Lower therefore signals greater toxicity. For `CNC(=O)c1cc(Cl)cc(C)c1NC(=O)c1cc(Br)nn1-c1ncccc1Cl` [CHLORANTRANILIPROLE], at Ryanodine receptor 2 [2], the outcome was inactive. Besides, in series [3], the LD50 was more than 5000 mg/kg. In addition, the EC50 was 14000 nM in series [4]; 40 nM on Ryanodine receptor; more than 100000 nM in series [5]; more than 100000 nM on Ryanodine receptor 2 [6]; 52 nM and 50 nM in series [1]. In addition, the Activity with PC-12 is 20%; with Rattus norvegicus, “Non-toxic”; with Oryctolagus cuniculus, “Non-toxic”. Also, the LC50 in the series on Heliothis virescens came to 0.04 µg/mL (≈ 0.0828 µM); with Plutella xylostella, 0.02 µg/mL (≈ 0.0414 µM); in the series with Spodoptera frugiperda, 0.02 µg/mL (≈ 0.0414 µM).

Turning to `Cn1c(=O)c2c(ncn2C)n(C)c1=O`, the Activity result at Ryanodine receptor 2 [6] (IMR-32) is “Dose-dependent effect”.

Turning to `Cc1cc(Cl)cc(C(=O)NC(C)C)c1NC(=O)c1cc(Br)nn1-c1ncccc1Cl`, the values for the LC50 in the series with Heliothis virescens, in the series on Plutella xylostella and in the series with Spodoptera frugiperda were 0.02 µg/mL (≈ 0.0391 µM), 0.04 µg/mL (≈ 0.0782 µM) and 0.04 µg/mL (≈ 0.0782 µM), respectively. In addition, the EC50 in [1] worked out at 458 nM.

Take `Cc1cc(Cl)cc(C(=O)NC(C)C)c1NC(=O)c1cc(OC(F)F)nn1-c1ncccc1Cl`: the LC50 with Heliothis virescens was found to be 0.12 µg/mL (≈ 0.241 µM); with Plutella xylostella, 0.1 µg/mL (≈ 0.201 µM); with Spodoptera frugiperda, 0.14 µg/mL (≈ 0.281 µM). Also, in series [1], the half-maximal effective concentration (EC50) was found to be 511 nM.

`CNC(=O)c1cc(Cl)cc(C)c1NC(=O)c1cc(Cl)nn1-c1ncccc1Cl`: the LC50 in the series on Heliothis virescens amounted to 0.07 µg/mL (≈ 0.16 µM); in the series on Plutella xylostella it was 0.03 µg/mL (≈ 0.0684 µM); in the series on Spodoptera frugiperda, 0.03 µg/mL (≈ 0.0684 µM). In addition, in [1], the EC50 amounted to 69 nM.

With `Cc1cc(Cl)cc(C(=O)NC(C)C)c1NC(=O)c1cc(C(F)(F)F)nn1-c1ncccc1Cl`, the LC50 in the series on Heliothis virescens was 0.02 µg/mL (≈ 0.04 µM); in the series with Plutella xylostella, 0.01 µg/mL (≈ 0.02 µM); in the series with Spodoptera frugiperda, 0.03 µg/mL (≈ 0.06 µM). Further, the EC50 in series [1] is 1830 nM.

On to `COc1cc(C(=O)Nc2c(C)cc(Cl)cc2C(=O)NC(C)C)n(-c2ncccc2Cl)n1`, for which the LC50 in the series on Heliothis virescens is 1.14 µg/mL (≈ 2.47 µM); with Plutella xylostella, 0.18 µg/mL (≈ 0.389 µM); with Spodoptera frugiperda, 0.3 µg/mL (≈ 0.649 µM). For the same compound, the EC50 in series [1] stood at 387 nM.

In the case of `CNC(=O)c1cc(I)cc(C)c1NC(=O)c1cc(Br)nn1-c1ncccc1Cl`, the figures for the LC50 in the series on Heliothis virescens, in the series on Plutella xylostella and in the series on Spodoptera frugiperda were 0.16 µg/mL (≈ 0.278 µM), 0.07 µg/mL (≈ 0.122 µM) and 0.13 µg/mL (≈ 0.226 µM), respectively. In series [1], the EC50 stood at 118 nM.

As to `Cc1cc(C(F)(F)F)cc(C(=O)NC(C)C)c1NC(=O)c1cc(C(F)(F)F)nn1-c1ncccc1Cl`, the LC50 in the series with Heliothis virescens turned out to be 0.11 µg/mL (≈ 0.206 µM); in the series with Plutella xylostella, 0.07 µg/mL (≈ 0.131 µM); in the series on Spodoptera frugiperda, 0.39 µg/mL (≈ 0.731 µM). The EC50 in series [1] was 3700 nM.

For `CNC(=O)c1cc(I)cc(C)c1NC(=O)c1cc(C(F)(F)F)nn1-c1ncccc1Cl`, the figures for the median lethal concentration (LC50) with Heliothis virescens, with Plutella xylostella and in the series on Spodoptera frugiperda were 0.21 µg/mL (≈ 0.373 µM), 0.1 µg/mL (≈ 0.177 µM) and 0.26 µg/mL (≈ 0.461 µM), respectively. For the same compound, the EC50 in [1] turned out to be 205 nM.

As for `CNC(=O)c1cc(Cl)cc(C)c1NC(=O)c1cc(OCC(F)(F)F)nn1-c1ncccc1Cl`, the LC50 in the series with Heliothis virescens was 0.24 µg/mL (≈ 0.478 µM); with Plutella xylostella, 0.04 µg/mL (≈ 0.0796 µM); in the series on Spodoptera frugiperda, 0.11 µg/mL (≈ 0.219 µM). In addition, the EC50 in series [1] came to 240 nM.

`CNC(=O)c1cc(Br)cc(C)c1NC(=O)c1cc(Br)nn1-c1ncccc1Cl`: the LC50 with Heliothis virescens is 0.11 µg/mL (≈ 0.208 µM); with Plutella xylostella, 0.06 µg/mL (≈ 0.114 µM); in the series with Spodoptera frugiperda, 0.18 µg/mL (≈ 0.341 µM). Further, the EC50 in series [1] came out at 63 nM.

For the compound `Cc1cc(Cl)cc(C(=O)NC(C)C)c1NC(=O)c1cc(OCC(F)(F)F)nn1-c1ncccc1Cl`, the LC50 with Heliothis virescens was determined as 0.09 µg/mL (≈ 0.17 µM); in the series on Plutella xylostella it was 0.01 µg/mL (≈ 0.0189 µM); in the series on Spodoptera frugiperda, 0.03 µg/mL (≈ 0.0566 µM). Further, the EC50 in series [1] is 2730 nM.
